Results: PubChem BioAssay (NCI)
Values joined by “and” are separate entries in the source; they are usually repeats but may differ in a detail not shown here. Identical values can stand only once.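 Cells were grown in 96-well plates and exposed to each compound for 48 hours at five concentrations; endpoints were interpolated linearly between bracketing concentrations, or set to the highest concentration if not reached. Abbreviation: GI50, concentration required for 50% inhibition of growth. Definition used: TGI = concentration required for complete inhibition of growth.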

What was measured:
Test in all cases: NCI anticancer screen, dose series, 48 h
A498 renal = system: A498 renal
ACHN renal = system: ACHN renal
HCT-116 colon = system: HCT-116 colon
IGROV1 ovarian = system: IGROV1 ovarian
NCI-H460 lung = system: NCI-H460 lung
OVCAR-5 ovarian = system: OVCAR-5 ovarian
SF-268 CNS = system: SF-268 CNS
SF-295 CNS = system: SF-295 CNS
SK-MEL-28 melanoma = system: SK-MEL-28 melanoma
CAKI-1 renal = system: CAKI-1 renal

Compound	GI50 (A498 renal)	TGI (A498 renal)	GI50 (ACHN renal)	TGI (ACHN renal)	GI50 (HCT-116 colon)	TGI (HCT-116 colon)	GI50 (IGROV1 ovarian)	TGI (IGROV1 ovarian)	GI50 (NCI-H460 lung)	TGI (NCI-H460 lung)	GI50 (OVCAR-5 ovarian)	TGI (OVCAR-5 ovarian)	GI50 (SF-268 CNS)	TGI (SF-268 CNS)	GI50 (SF-295 CNS)	TGI (SF-295 CNS)	GI50 (SK-MEL-28 melanoma)	TGI (SK-MEL-28 melanoma)	TGI (CAKI-1 renal)	GI50 (CAKI-1 renal)
CCNc1nc(-c2ccc(Cl)c(OC)c2)c(-c2ccnc(NCCNS(=O)(=O)c3ccc(Cl)cc3)n2)s1	1.5 µM	6.52 µM	3.14 µM	> 100 µM	2.65 µM	6.25 µM	4.68 µM	> 100 µM	3.2 µM	> 100 µM	3.67 µM	> 100 µM	4.03 µM	> 100 µM	1.89 µM	3.83 µM	3.33 µM	> 100 µM		
CCCCCCCCCCCCCCCC(=O)NCC(OCC)OCC				> 100 µM		> 100 µM		> 100 µM		> 100 µM		> 100 µM		> 100 µM		> 100 µM		> 100 µM		
CCOC(=O)/C(=C/c1ccc[nH]1)P(=O)(OCC)OCC				> 100 µM		> 100 µM				> 100 µM		> 100 µM		> 100 µM		> 100 µM		> 100 µM	> 100 µM	
Cn1nc(-c2ccccc2)c(C(=O)/C=C/c2ccccc2)c(N2CCCC2)c1=O		26.9 µM		41.5 µM		19.2 µM		55.7 µM		32.4 µM				64.2 µM				32.8 µM		
O=C1COc2cc3c(cc2N1)SCC(=O)N3						> 100 µM		> 100 µM						> 100 µM		> 100 µM		> 100 µM	> 100 µM	
Cc1nc(-c2cccnc2)sc1C(=O)/C=C/c1ccc(Cl)cc1Cl		> 100 µM		> 100 µM				> 100 µM		> 100 µM		> 100 µM		> 100 µM		> 100 µM		> 100 µM	> 100 µM	
Cc1c2cc[n+](C)cc2c(C)c2c1[nH]c1ccc(Oc3ccccc3)cc12		> 100 µM		> 38.4 µM and 19 µM		> 100 µM		33.5 µM and 24.5 µM	1.64 µM and 1.06 µM	14 µM and 11.4 µM		> 42 µM and 29.9 µM		14.7 µM and > 19.9 µM				> 27.3 µM and 21.3 µM	> 100 µM	
CC1CC2C(=O)N(c3ccccc3)C(=O)C2c2[nH]c3ccccc3c21 (stereo unspecified)		> 100 µM		> 100 µM				> 100 µM		> 100 µM				> 100 µM		> 100 µM		> 100 µM		
Nc1ccc2ncc(Nc3ccc(Cl)c(Cl)c3)nc2c1				86.3 µM		57.3 µM				> 100 µM		> 100 µM		> 100 µM		49.9 µM		84.1 µM	67.3 µM	
O=C(c1ccccc1)c1ccc(N2C(=O)C3C4c5ccccc5C(/C=C/C(=O)c5ccccn5)(c5ccccc54)C3C2=O)cc1 (stereo unspecified)	2.19 µM	5.8 µM	2.07 µM	4.64 µM	1.66 µM	4.02 µM	1.86 µM	4.48 µM	2.67 µM	9.23 µM	2 µM	5.97 µM	> 23.1 µM	> 100 µM	2.03 µM	5.07 µM			> 100 µM	8.82 µM
O=C(Nc1ccccc1)Oc1ccccc1C1CCCCC1		> 100 µM				90.2 µM		> 100 µM		60 µM		> 100 µM		> 100 µM		51.2 µM		58.1 µM		
CCCCc1c2c(nc3c1CC/C(=C\c1ccccc1)C3=O)CCCC2				25.9 µM		16.1 µM		15.2 µM		17.7 µM				12.6 µM		16 µM		9.52 µM		
CC1=CC(=O)N2[C@H](OC[C@@H]2C(C)C)O1				> 100 µM		> 100 µM		> 100 µM		> 100 µM				> 100 µM		> 100 µM		> 100 µM	> 100 µM	
CCNC(=O)O/N=C1/C=C2CC[C@@H]3C(CC[C@@]4(C)C3CC[C@@H]4OC(=O)NCC)[C@@]2(C)CC1 (stereo partly specified)		> 100 µM		11.6 µM		12.2 µM		> 100 µM		12.5 µM		20 µM				7.03 µM		14.6 µM	16.9 µM	
O=C1C(=O)c2c(ccc3ccccc23)-c2ccccc21	10.4 µM	26 µM	2.74 µM	> 100 µM	0.384 µM	2.87 µM			1.6 µM	3.08 µM	2.54 µM	7.45 µM	1.77 µM	5.73 µM	1.92 µM	4.6 µM	1.73 µM	3.67 µM	> 100 µM	2.7 µM
C=CCCC1(CCP(=O)(c2ccccc2)c2ccccc2)OCCO1				> 100 µM		> 100 µM		> 100 µM		> 100 µM		> 100 µM		> 100 µM		> 100 µM		> 100 µM		
CCOC(=O)NC/C=C/CO		> 100 µM		> 100 µM		> 100 µM		> 100 µM		> 100 µM				> 100 µM				> 100 µM	> 100 µM	
O=C(/C=C/N1CCN(c2cccc(Cl)c2)CC1)c1ccc(Cl)cc1	21.8 µM	48.1 µM	44.9 µM	> 100 µM	27.1 µM	70.4 µM			33.6 µM	> 100 µM	49.7 µM	> 100 µM	19.8 µM	53.2 µM	18.6 µM	54.2 µM	39.9 µM	91.2 µM	71.1 µM	28.8 µM
COC(=O)N/N=C(\c1nc2ccc(Cl)cc2[nH]c1=O)C(O)c1ccc([N+](=O)[O-])cc1 (stereo unspecified)						> 100 µM		> 100 µM		> 100 µM		> 100 µM		> 100 µM		> 100 µM		> 100 µM	> 100 µM	
COC(=O)CCSC(=O)Nc1ccccc1Cl		> 100 µM		> 100 µM		> 100 µM				> 100 µM		> 100 µM		> 100 µM		> 100 µM		> 100 µM	> 100 µM	
Cn1c(=O)c(-c2c(Cl)cccc2Cl)cc2cnc(Nc3ccc(N4CCOCC4)cc3)nc21	< 0.0433 µM	0.14 µM			< 0.01 µM	0.148 µM		1.33 µM	0.57 µM		0.0349 µM	0.799 µM	0.391 µM	> 27.9 µM	0.2 µM	> 100 µM	0.675 µM	> 100 µM	0.0806 µM	< 0.01 µM
